The source of these data is PMC4959829 (Biochemical Pharmacology, 2016).

Data set [1] deals with hERG (WT). The conditions noted are these: cited from earlier work.
Data set [2] relates to hERG (WT). As to the kind of experiment: Literature IhERG block, WT hERG in Xenopus oocytes. In kind it is cell-based. The conditions noted are these: human, Xenopus oocytes expressing WT hERG; Oocyte, room temperature; estimated from single dose data with Hill equation, h = 1; read-out: WT IC50 (estimated).
For a further data set, the target named is Y652A hERG (Homo sapiens, UniProt Q12809, Y652A). Conditions: cited from earlier work.
Y652A hERG, sequence (Q12809 whole entry Y652A): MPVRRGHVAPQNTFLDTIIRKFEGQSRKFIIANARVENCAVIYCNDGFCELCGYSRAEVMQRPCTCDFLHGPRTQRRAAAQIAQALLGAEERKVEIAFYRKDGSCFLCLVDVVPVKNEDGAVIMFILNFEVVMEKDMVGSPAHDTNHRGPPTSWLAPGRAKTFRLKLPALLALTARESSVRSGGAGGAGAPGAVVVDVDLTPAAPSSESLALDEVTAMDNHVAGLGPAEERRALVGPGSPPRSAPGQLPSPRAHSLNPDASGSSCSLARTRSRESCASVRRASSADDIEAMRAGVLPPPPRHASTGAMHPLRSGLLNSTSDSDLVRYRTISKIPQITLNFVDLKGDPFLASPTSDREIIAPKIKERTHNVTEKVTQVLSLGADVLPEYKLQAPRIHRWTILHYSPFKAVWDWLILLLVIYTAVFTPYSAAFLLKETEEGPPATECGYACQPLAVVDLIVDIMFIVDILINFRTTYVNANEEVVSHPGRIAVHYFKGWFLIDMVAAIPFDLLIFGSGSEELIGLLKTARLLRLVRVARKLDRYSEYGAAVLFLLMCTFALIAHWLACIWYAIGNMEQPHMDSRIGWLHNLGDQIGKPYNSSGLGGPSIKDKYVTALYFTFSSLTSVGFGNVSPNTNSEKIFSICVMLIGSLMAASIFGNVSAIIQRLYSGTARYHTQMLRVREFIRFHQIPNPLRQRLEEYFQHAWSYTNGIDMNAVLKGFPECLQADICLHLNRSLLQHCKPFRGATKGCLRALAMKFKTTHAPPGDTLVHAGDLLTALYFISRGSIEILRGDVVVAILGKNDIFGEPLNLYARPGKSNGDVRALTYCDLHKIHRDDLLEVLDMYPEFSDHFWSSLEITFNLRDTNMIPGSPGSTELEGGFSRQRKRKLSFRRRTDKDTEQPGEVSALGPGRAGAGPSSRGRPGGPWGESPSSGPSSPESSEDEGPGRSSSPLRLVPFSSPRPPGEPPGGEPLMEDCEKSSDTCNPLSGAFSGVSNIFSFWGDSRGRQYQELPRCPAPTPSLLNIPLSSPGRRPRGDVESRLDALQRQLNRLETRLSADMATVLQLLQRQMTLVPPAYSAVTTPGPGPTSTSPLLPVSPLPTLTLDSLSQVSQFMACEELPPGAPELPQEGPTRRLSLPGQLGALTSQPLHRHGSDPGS
A further data set concerns the target F656A hERG (Homo sapiens, UniProt Q12809, F656A). Conditions: cited from earlier work.
Data set [3] has as its system hERG (WT). The conditions noted are these: cited from earlier work. The source holds these as a separate data set.
Where [4] appears, read: read-out: WT IC50, Oocyte, room temperature.

Like-named read-outs stand apart in the source and are kept apart here.

For the compound `COc1cc(N)c(Cl)cc1C(=O)NC1CCN(CCCOc2ccc(F)cc2)CC1OC` (stereo not drawn) [Cisapride], the IC50 – broadly, the point on the concentration scale where inhibition reaches its midpoint – with hERG (WT) [1] was […].

F656A hERG, sequence (Q12809 whole entry F656A): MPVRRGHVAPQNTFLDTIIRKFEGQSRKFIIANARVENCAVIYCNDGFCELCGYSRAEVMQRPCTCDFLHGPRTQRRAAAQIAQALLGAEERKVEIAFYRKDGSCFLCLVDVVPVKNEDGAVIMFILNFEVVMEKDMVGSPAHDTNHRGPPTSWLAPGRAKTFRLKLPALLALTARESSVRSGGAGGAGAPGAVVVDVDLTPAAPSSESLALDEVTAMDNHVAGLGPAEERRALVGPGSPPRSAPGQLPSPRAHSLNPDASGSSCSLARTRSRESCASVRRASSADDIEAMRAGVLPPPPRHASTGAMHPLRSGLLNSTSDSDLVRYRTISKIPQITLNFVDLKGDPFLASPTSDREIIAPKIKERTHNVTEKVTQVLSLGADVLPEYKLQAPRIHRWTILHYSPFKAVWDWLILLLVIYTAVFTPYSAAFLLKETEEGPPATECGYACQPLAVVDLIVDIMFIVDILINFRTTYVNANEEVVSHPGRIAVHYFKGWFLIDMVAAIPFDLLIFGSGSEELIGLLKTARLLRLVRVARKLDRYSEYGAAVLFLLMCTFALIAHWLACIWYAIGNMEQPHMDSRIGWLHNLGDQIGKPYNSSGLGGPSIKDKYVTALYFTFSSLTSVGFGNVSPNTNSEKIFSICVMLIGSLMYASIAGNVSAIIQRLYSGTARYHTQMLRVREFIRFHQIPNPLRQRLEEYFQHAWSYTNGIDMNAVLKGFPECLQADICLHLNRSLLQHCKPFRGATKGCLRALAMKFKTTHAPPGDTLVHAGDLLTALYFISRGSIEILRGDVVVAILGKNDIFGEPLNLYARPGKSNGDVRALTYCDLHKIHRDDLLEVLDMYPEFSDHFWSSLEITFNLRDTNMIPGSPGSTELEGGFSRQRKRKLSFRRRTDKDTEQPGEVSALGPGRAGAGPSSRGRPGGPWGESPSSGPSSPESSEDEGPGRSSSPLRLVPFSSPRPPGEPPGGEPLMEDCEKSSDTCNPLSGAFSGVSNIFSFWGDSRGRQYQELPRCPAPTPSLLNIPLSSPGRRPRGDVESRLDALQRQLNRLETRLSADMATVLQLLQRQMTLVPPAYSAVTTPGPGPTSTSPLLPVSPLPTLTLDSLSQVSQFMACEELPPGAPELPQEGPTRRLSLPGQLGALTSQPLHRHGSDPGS

As for `CCCCCCC[N+](CC)(CC)CCCCc1ccc(Cl)cc1` [Clofilium], in the data set with hERG (WT) [1] (setting [4]), the IC50 was 30 nM.

In the case of `CN(CCOc1ccc(NS(C)(=O)=O)cc1)CCc1ccc(NS(C)(=O)=O)cc1` [Dofetilide, dofetilide], the potency estimated from few doses with hERG (WT) [2] is […].

As for `CCCCCCCN(CC)CCCC(O)c1ccc(NS(C)(=O)=O)cc1` (stereo not drawn) [Ibutilide], in the data set with hERG (WT) [1] (setting [4]), the IC50 is […].

Take `O=C1Cc2cc(CCN3CCN(c4nsc5ccccc45)CC3)c(Cl)cc2N1` [Ziprasidone]: on Y652A hERG, the “IC50 fold increase (mutant IC50/WT IC50), Y652A” value is 140 fold. Also, the “IC50 fold increase (mutant IC50/WT IC50), F656A” value at F656A hERG is 357 fold. For the same compound, the IC50 in the data set with hERG (WT) [1] is 2800 nM; with hERG (WT) [3] (HEK293, 37 °C, read-out: WT IC50), 120 nM.

For `CCCCc1oc2ccccc2c1C(=O)c1cc(I)c(OCCNCC)c(I)c1` [desethyl-amiodarone], the IC50 in the data set with hERG (WT) [3] (metabolite DEA, read-out: IhERG IC50) was ~160 nM.
